According to patent publication US8143307B2, “Benzothiophen-2-carbonylguanidine derivatives, preparation thereof, and pharmaceutical composition containing the same” (Korea Research Institute of Chemical Technology, priority 2004, dated 2012):

Key:
cortical neurons = test: Neuroprotective effect against glutamate-induced neurotoxicity; type: cell-based, rat; settings: for TUNEL-Positive Cells (apoptosis): 12 hours after glutamate treatment; for Free LDH Levels (necrosis): 20 hours after glutamate treatment
Method: Cortical neurons were isolated from the brain of 14-day-old fetal rats and cultured in Eagle's MEM (Minimum essential medium) at 37° C. in a 5% CO2 atmosphere. On day 3 or 4 of culturing, 10 μM cytosine-β-arabinofuranoside (AraC) was added to the culture medium to prevent the overgrowth of glial cells. […] On day 7˜9 of culturing, the cells were induced to cellular toxicity by treatment with 100 μM glutamate in combination with the compounds of interest or vehicle alone as a negative control. Necrosis was determined by released LDH (Lactate dehydrogenase) levels at 20 hours after glutamate treatment. For the analysis of apoptosis, the count of TUNEL (Terminal deoxynucleotidyl transferase UTP nick end labeling)-positive cells was measured at 12 hours after glutamate treatment.

Human NHE-1 = target: T1, Human NHE-1 (Homo sapiens, UniProt P19634); test: Inhibitory effect on NHE-1 in PS120/NHE-1 cells (recovery from intracellular acidosis, BCECF fluorescence); type: cell-based; settings: human NHE-1 expressed PS120 cells; concentration at which recovery from intracellular acidosis was 50% inhibited
T1 construct: expressed in transfected cells; host or cells: CCL39-derived PS120 cells (PS120/NHE-1)

[1] = test system: in vivo ischemic rat brain model; test: Cerebroprotective effect on in vivo ischemic rat brain model; settings: for % Infarct size/hemisphere / TUNEL-Positive Cells (% Right/Left Hemisphere): 60 min ischemia, 24 hours reperfusion
Method: In order to examine whether the benzothiophen-2-carbonylguanidine derivatives of the present invention protect the brain from ischemia-reperfusion-induced cerebral injury, the following experiment was conducted.
Male Sparague-Dawley Rats (350±50 g, Samyook Experimental Animal Lab) were anesthetized and intraperitoneally injected with heparine. After ischemia by the occlusion of the right carotid artery for 60 min, reperfusion was performed for 24 hours. Compounds or a vehicle was intravenously injected at 20 min before the occlusion.
After the perfusion for 24 hours, rats were anesthetized with a fatal dose of sodium pentobarbital. The brains were carefully isolated and transected at intervals of 2 mm. The coronary slices thus obtained were stained at 37° C. for 20 min using a 2% 2,3,5-triphenyltetrazolium chloride solution. Stained slices were analyzed for % necrosis area relative to total brain area using an image analyzer (BAS image 1500). Also, the cerebroprotective activity of the compounds against brain edema was expressed as % volume of the left hemisphere relative to that of the ischemic right hemisphere.

[2] = 0.1 mg/kg intravenous 20 min before occlusion
[3] = 0.3 mg/kg intravenous 20 min before occlusion

T1 sequence (P19634 whole entry): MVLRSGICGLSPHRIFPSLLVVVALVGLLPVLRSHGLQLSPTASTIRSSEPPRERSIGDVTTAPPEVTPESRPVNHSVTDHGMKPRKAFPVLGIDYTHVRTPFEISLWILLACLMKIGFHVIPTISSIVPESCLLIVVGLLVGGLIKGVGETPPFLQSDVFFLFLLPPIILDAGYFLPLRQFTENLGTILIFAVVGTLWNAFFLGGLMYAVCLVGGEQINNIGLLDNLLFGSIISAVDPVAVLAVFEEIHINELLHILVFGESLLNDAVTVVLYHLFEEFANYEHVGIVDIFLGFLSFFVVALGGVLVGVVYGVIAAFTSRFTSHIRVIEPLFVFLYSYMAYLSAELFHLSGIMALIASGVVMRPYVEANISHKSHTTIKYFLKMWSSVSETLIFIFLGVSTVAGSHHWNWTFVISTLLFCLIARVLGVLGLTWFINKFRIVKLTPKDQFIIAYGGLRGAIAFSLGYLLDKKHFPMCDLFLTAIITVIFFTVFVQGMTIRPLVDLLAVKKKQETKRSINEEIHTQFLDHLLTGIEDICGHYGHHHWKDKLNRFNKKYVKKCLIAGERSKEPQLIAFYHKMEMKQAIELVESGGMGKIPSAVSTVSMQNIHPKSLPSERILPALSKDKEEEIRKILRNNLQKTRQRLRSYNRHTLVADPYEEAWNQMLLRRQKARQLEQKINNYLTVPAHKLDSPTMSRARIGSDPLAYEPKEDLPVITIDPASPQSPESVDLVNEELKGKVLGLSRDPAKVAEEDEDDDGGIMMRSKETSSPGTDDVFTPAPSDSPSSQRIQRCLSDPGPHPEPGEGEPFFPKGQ

CS(=O)(=O)O.N#Cc1cccc2sc(C(=O)N=C(N)N)cc12 [Example 42, (4-Cyanobenzothiophene-2-Carbonyl)Guanidine Methanesulfonate]
TUNEL-Positive Cells (apoptosis) (cortical neurons; 0.1 μM with 100 μM glutamate): 28.6
Free LDH Levels (necrosis) (cortical neurons; 0.1 μM with 100 μM glutamate): 58.6
TUNEL-Positive Cells (apoptosis) (cortical neurons; 1.0 μM with 100 μM glutamate): 23.9
Free LDH Levels (necrosis) (cortical neurons; 1.0 μM with 100 μM glutamate): 43.2
TUNEL-Positive Cells (apoptosis) (cortical neurons; 10 μM with 100 μM glutamate): 18.8
Free LDH Levels (necrosis) (cortical neurons; 10 μM with 100 μM glutamate): 38.8
TUNEL-Positive Cells (apoptosis) (cortical neurons; 100 μM with 100 μM glutamate): 12.6
Free LDH Levels (necrosis) (cortical neurons; 100 μM with 100 μM glutamate): 32.3
necrosis and apoptosis of neurons (glutamate-induced neurotoxicity) (cortical neurons; 0.1-100 μM with 100 μM glutamate): inhibited the necrosis and apoptosis of neurons in dose-dependent manners
IC50 (Human NHE-1): 2020 nM
% Infarct size/hemisphere [1, 2]: 21.4%
TUNEL-Positive Cells (% Right/Left Hemisphere) [1, 2]: 111.2%
% Infarct size/hemisphere [1, 3]: 18.6%
TUNEL-Positive Cells (% Right/Left Hemisphere) [1, 3]: 107.96%
ischemia/reperfusion-induced brain infarction and brain edema ([1]; injection doses of both 0.1 mg/kg and 0.3 mg/kg): significantly reduced
